Here are results for 1 compound from patent publication US12447167B2, “GM-CSF-producing t-cell control agent and Th1/Th2 immune balance regulator” (National Center of Neurology and Psychiatry, priority 2014, dated 2025).

This test concerns GM-CSF. The experiment in a line: GM-CSF expression level of sorted CD4-positive memory T-cells of MS patients (ELISA of culture supernatant). The class given is in vivo, human. The following applies: 0.3 mg single oral. On the procedure:
A single dose of compound 31, which is a synthetic glycolipid of the present invention, described in the first aspect was orally administered to each of 2 MS patients (subjects) shown in Table 2 above after obtainment of informed consent. The dose was set to 0.3 mg per person.
Subsequently, T-cell subfractions were prepared from the peripheral blood of each subject by using the density gradient centrifugation method. First, a total of 20 mL of blood was collected from the vein of each subject 24 hours (1st day), 48 hours (2nd day), 72 hours (3rd day), 168 hours (7th day), and 192 hours (8th day) after the administration of compound 31 by using two 10-mL heparin sodium-containing vacuum blood collection tubes. For a control, 20 mL of blood was similarly collected from the vein of each subject one day before the administration of compound 31.
The collected PBMCs were stained with antibodies by the following method. First, 10 μL of a solution consisting of 20 μL of MACS buffer, 0.25 μL of APC-Cy7-anti-CD3 antibody (BioLegend, Inc.), 1 μL of PB-anti-CD4 antibody (BioLegend, Inc.), 1 μL of PerCP-Cy5.5-anti-CD45RA antibody (BioLegend, Inc.), and 1 μL of PC7-anti-CD56 antibody (Beckman Coulter, Inc.) was added to 6×10^6 cells of PBMCs, thoroughly mixed by vortexing, and then left on ice for 20 minutes. CD56 is a detection marker of cells having NK activity, and CD3^−CD56^− cells indicate being antigen-presenting cells (APCs). […]
mCD4T and APC obtained by the sorting were each suspended in a medium consisting of 500 mL of RPMI1640 (GIBCO/Thermo Fisher Scientific Inc.), 5 mL of glutamine (200 mM, Wako Pure Chemical Industries, Ltd.), 5 mL of Pen/strep (10,000 U/mL, GIBCO/Thermo Fisher Scientific Inc.), 0.5 mL of 2-mercaptoethanol (GIBCO/Thermo Fisher Scientific Inc.), and 50 mL of 10% (v/v) Cellect FETAL BOVINE SERUM (MP Biomedicals, LLC), and the number of cells was measured. […]
After the culture, a culture supernatant was collected, and IFN-γ, IL-4, IL-17, and GM-CSF were measured by the ELISA method. […]

On to `CCCCCCCCCCCCCCCCCCCCCCCC(=O)NC(COC1OC(CO)C(O)C(O)C1O)[C@H](O)C(O)CCCCC` (stereo in doubt) [compound 31, (2S,3S,4R)-1-O-(α-D-galactosyl)-2-(N-tetracosanoylamino)-1,3,4-nonanetriol], for which the GM-CSF expression level is, setting by setting: (day 8, MBP stimulation, day −1 value 153.15) 50.81; (day 8, OVA stimulation, day −1 value 224.87) 168.45. Under “day8 vs day-1”, the “change of expression level of GM-CSF” value is “decreased”.
